This is an account of results in publication PMC1977912 (British Journal of Cancer, 1992).

One assay has as its target T1, gastrin/CCK-B receptors (Rattus norvegicus, UniProt P30553).
T1 construct: AR4-2J cells were harvested, washed three times with Eagle's modified essential medium; host or cells: AR4-2J rat pancreatic acinar tumour cells (intact cells)
T1 sequence (P30553 1-452): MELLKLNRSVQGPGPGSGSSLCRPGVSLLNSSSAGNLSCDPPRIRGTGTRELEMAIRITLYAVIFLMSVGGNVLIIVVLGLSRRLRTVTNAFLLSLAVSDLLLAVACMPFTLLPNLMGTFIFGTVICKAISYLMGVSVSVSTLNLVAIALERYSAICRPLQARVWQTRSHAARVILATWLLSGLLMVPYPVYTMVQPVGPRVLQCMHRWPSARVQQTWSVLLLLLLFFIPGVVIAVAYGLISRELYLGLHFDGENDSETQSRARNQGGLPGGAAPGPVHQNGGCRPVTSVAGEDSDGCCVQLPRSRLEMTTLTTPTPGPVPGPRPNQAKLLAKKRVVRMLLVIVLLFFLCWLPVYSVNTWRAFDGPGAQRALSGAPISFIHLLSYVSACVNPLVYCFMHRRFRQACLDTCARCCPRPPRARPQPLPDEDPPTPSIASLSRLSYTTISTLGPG
The experiment in a line: Displacement of 125I-hG17-1 binding to AR4-2J cells. The settings on record: read-out: IC50 for displacing 125I-hG17-1 binding. (In general: Displacement assays read how much labelled ligand stays bound in the presence of the test substance.)

Assay [1] deals with AR4-2J cells. The experiment in a line: Reversal by exogenous gastrin of antagonist-induced inhibition of AR4-2J proliferation. It is filed as cell-based, rat. Conditions: 5 x 10^-7 M gastrin added 2 h before the antagonist at its growth IC50.
In assay [2] the test system is AR4-2J cells. The experiment in a line: Inhibition of unsynchronised AR4-2J cell proliferation by gastrin/CCK receptor antagonists (MTT assay, direct cell counts). The settings on record: Rattus norvegicus, AR-42J, 96 h, read-out: half maximal inhibitory concentration, AR4-2J proliferation. Format: cell-based. A general note: Formazan colour is commonly taken as a measure of viable cells.

The next assay deals with HT-29 cells. Nature of the assay: HT-29 cell proliferation (MTT assay). It is filed as cell-based, human.
For assay [3], the system named is AR4-2J cells. Nature of the assay: Effect of exogenous gastrin on AR4-2J proliferation in serum-free medium (MTT assay). Format: cell-based, rat. Conditions: up to 5 x 10^-6 M.

Entries after “also recorded” stand apart in the source; their conditions may differ. Read-outs that look alike come from different tables or passages of the source.

As to `O=C(N[C@@H](Cc1c[nH]c2ccccc12)C(=O)O)c1ccc(Cl)cc1` [benzotript, N-p-chlorobenzoyl-L- tryptophan], on gastrin/CCK-B receptors, the IC50 came out at 260 µM. Besides, in the assay with AR4-2J cells [1], the “effect of prior addition of gastrin on the inhibition of cell growth” value (from here on “effect … on the inhibition of cell growth”) is “partially reversed”.
Turning to `Cc1cccc(NC(=O)N[C@@H]2N=C(c3ccccc3)c3ccccc3N(C)C2=O)c1` [L-365,260, 3R(+)-N-(2,3-dihydro-1-methyl-2-oxo-5-phenyl-1H-1 ,4-benzodiazepin-3-yl) -N'-(3-methylphenyl)urea], the “effect … on the inhibition of cell growth” value in the assay on AR4-2J cells [1] is listed as “not reversed; also recorded: not significantly effected”.
For the compound `CN1C(=O)[C@@H](NC(=O)c2cc3ccccc3[nH]2)N=C(c2ccccc2)c2ccccc21` [devazepide, 3S (- )-N-(2,3-dihydro-l-methyl-2-oxo-5-phenyl-1 H-1,4-benzodiazepine-3-yl) -1H-indole-2-carboxamide], the IC50 with AR4-2J cells [2] is 17 µM. Besides, the “effect … on the inhibition of cell growth” value with AR4-2J cells [1] was “not reversed; also recorded: not significantly effected”.
Turning to `CCCCCN(CCCCC)C(=O)C(CCC(=O)O)NC(=O)c1ccc(Cl)c(Cl)c1` (racemic) [lorglumide, D, L-4-(3,4-dichlorobenzoylamino)-5-(di-n-pentylamino)-5-oxo-pentanoic acid], the “effect … on the inhibition of cell growth” value in the assay with AR4-2J cells [1] is given as “partially reversed”.
For the compound gastrin, the “effect on HT-29 proliferation” value with HT-29 cells is reported as “neither exogenous gastrin nor an anti-gastrin Ig preparation effected proliferation”. In addition, the “effect on proliferation of asynchronous AR4-2J cells” value in the assay with AR4-2J cells [3] is “no significant effect”.
Regarding `CCCCCN(CCCOC)C(=O)C(CCC(=O)O)NC(=O)c1ccc(Cl)c(Cl)c1` (racemic) [loxiglumide, D,L-4-(3,4-di-chlorobenzoylamino) -5-(N-3-methoxypropylpentylamino)-5-oxo-pentanoic acid], in the assay with AR4-2J cells [1], the “effect … on the inhibition of cell growth” value is given as “partially reversed”.
With `CCCN(CCC)C(=O)C(CCC(=O)O)NC(=O)c1ccccc1` (racemic) [proglumide, D,L-4-benzamido-N,N-di-n-propylgluta-ramic acid], the IC50 was 3000 µM in the assay on AR4-2J cells [2] (4 day incubation, text statement of range) and 1300 µM at gastrin/CCK-B receptors. Moreover, in the assay on AR4-2J cells [1], the “effect … on the inhibition of cell growth” value is “partially reversed”.
